In this data set the test system is CCRIS mutagenicity, Ames/micronucleus/aberration tests. Briefly: CCRIS mutagenicity studies.
The mark [1] stands for this setting: Test System: AMES SALMONELLA TYPHIMURIUM, Strain/Indicator: TA98, Metabolic Activation: NONE, Method: STANDARD PLATE.
[2] abbreviates: Test System: AMES SALMONELLA TYPHIMURIUM, Strain/Indicator: TA100, Metabolic Activation: NONE, Method: STANDARD PLATE.

This passage reports mutagenic call results from PubChem BioAssay AID1259407 (Chemical Carcinogenesis Research Information System (CCRIS), 2018).

Activity calls are given as the source filed them. No rule for the calls is given here.

`O=C1c2ccccc2C(=O)c2cc(O)ccc21`: the mutagenic call is “active; positive” (Test System: AMES SALMONELLA TYPHIMURIUM, Strain/Indicator: TA98, Metabolic Activation: NONE, Method: PREINCUBATION); “active; positive” (Test System: AMES SALMONELLA TYPHIMURIUM, Strain/Indicator: TA98, Metabolic Activation: RAT, LIVER, S-9, AROCLOR 1254 (10%), Method: PREINCUBATION); “inactive; negative” (Test System: AMES SALMONELLA TYPHIMURIUM, Strain/Indicator: TA100, Metabolic Activation: NONE, Method: PREINCUBATION); “inactive; negative” (Test System: AMES SALMONELLA TYPHIMURIUM, Strain/Indicator: TA100, Metabolic Activation: RAT, LIVER, S-9, AROCLOR 1254 (10%), Method: PREINCUBATION).

Turning to `COP(=S)(OC)Oc1ccc(SC)c(C)c1`, the mutagenic call by setting is: (End Point: IN VITRO CHROMOSOMAL ABERRATIONS, Test System: HUMAN PERIPHERAL LYMPHOCYTES, Metabolic Activation: NONE) “active; positive (structural changes)”; (End Point: In vitro chromosomal aberration, Test System: Chinese hamster ovary (CHO) cells, Metabolic Activation: None) “inactive; negative”; (End Point: In vitro chromosomal aberration, Test System: Chinese hamster ovary (CHO) cells, Metabolic Activation: Rat, Liver, S-9) “inactive; negative”; (Test System: UDS Rat hepatocytes, Strain/Indicator: Thymidine incorporation, Metabolic Activation: None, Method: Autoradiography) “active; positive”.

In the case of `C=CC[C@]1(O)CC[C@H]2[C@@H]3CCC4=CCCC[C@@H]4[C@H]3CC[C@@]21C`, the mutagenic call (End Point: IN VIVO MICRONUCLEUS, Test System: HEPATOCYTES, Species: RAT, Strain/Sex: SPRAGUE-DAWLEY/FEMALE, Route: INTRAGASTRIC (GAVAGE)) is “inactive; negative (increase not significant)”.

Turning to `O=C(O)Nc1ccccc1`, the mutagenic call is “inactive; negative” under setting [1]; “inactive; negative” (Test System: AMES SALMONELLA TYPHIMURIUM, Strain/Indicator: TA98, Metabolic Activation: RAT, LIVER, S-9, AROCLOR 1254, Method: STANDARD PLATE); “inactive; negative” under setting [2]; “inactive; negative” (Test System: AMES SALMONELLA TYPHIMURIUM, Strain/Indicator: TA100, Metabolic Activation: RAT, LIVER, S-9, AROCLOR 1254, Method: STANDARD PLATE).

Turning to `Cn1c2ccccc2c2cc([N+](=O)[O-])ccc21`, the mutagenic call under setting [1] is “active; positive”; the mutagenic call (Test System: AMES SALMONELLA TYPHIMURIUM, Strain/Indicator: TA98, Metabolic Activation: RAT LIVER S-9, AROCLOR 1254, Method: STANDARD PLATE) was “active; positive”; the mutagenic call under setting [2] is “active; positive”; the mutagenic call (Test System: AMES SALMONELLA TYPHIMURIUM, Strain/Indicator: TA100, Metabolic Activation: RAT LIVER S-9, AROCLOR 1254, Method: STANDARD PLATE) is “active; positive”.
